Measured values as given in patent EP3954371B1, “ANTI-ACETYLCHOLINESTERASE ACTIVE COMPOSITION IN CAULIS MAHONIAE AND SCREENING METHOD THEREFOR AND APPLICATION THEREOF” (Shenzhen Institute for Drug Control (Shenzhen Testing …, priority 2019, dated 2021).

Columns and labels:
AChE [1] = target: T1, AChE (Homo sapiens, UniProt P22303); format: binding; details: 20 µg/mL in ammonium acetate buffer (10 mM, pH = 7.4) for standards; FIGS. 4A, 4B, 5
T1 construct: purchased Sigma
Method: In a first step, a mobile phase, the ammonium acetate buffer (10 mM, pH = 7.4), was provided by a peristaltic pump at a flow rate of 5 µL/min and a sample was injected at a volume of 100 µL, and the process lasted for 40 min, then fractions were collected.
In a second step, the mobile phase was changed from the ammonium acetate buffer (10 mM, pH = 7.4) to methanol and provided at a flow rate of 20 µL/min and target components were dissociated from proteins, and the process lasted for 20 min, then fractions were collected.
A blank control monolithic column, Control-ICER, was set by the same operation method and the corresponding fractions were collected.
The collected fractions were blown to dryness with N2, dissolved in 100 µL of methanol, and analyzed through LC-MS.
LC-MS conditions: a chromatographic column Thermo Acclaim TM C18 (4.6 mm× 250 mm, 5 µm); mobile phases where acetonitrile was mobile phase A and 0.08% (v/v) formic acid and a 2 mM ammonium acetate solution were mobile phase B; a flow rate of 1.0 mL/min; an injection volume of 3 µL; a column temperature of 25 °C; and a detection wavelength of 280 nm. […]

AChE [2] = target: T1, AChE; experiment: synergistic effect of combined active components (FIC) by AChE assay method; format: biochemical; details: for effect of combinations when used as the first alkaloid: first alkaloid diluted stepwise, other alkaloids fixed at IC30; for IC20 / IC50 / IC80 / IC90: first compound diluted, added compounds fixed at IC30, unit not in table; for IC20: read-out: IC Value (Standard Deviation) IC20; for IC50: read-out: IC Value (Standard Deviation) IC50 (converted); for IC80: read-out: IC Value (Standard Deviation) IC80; for IC90: read-out: IC Value (Standard Deviation) IC90
Method: One pharmaceutical component, compound A, was selected and diluted step by step according to 1:1; the concentration of a second pharmaceutical component, compound B, was fixed to IC30; based on a size of a fractional inhibitory concentration (FIC) value, the concentration of compound A was fixed, the concentration of pharmaceutical compound B was changed, and the FIC value was determined.
Fractional effects (FEs) of the two compounds are as follows: FEA = IC50 (A+B)/IC50 (A) [formula] FEB = IC50 (A+B)/IC50 (B) [formula] FIC = FEA + FEB [formula]
By analogy, all possible combinations were calculated. Table 4 Dilution concentration and fold

AChE [3] = target: T1, AChE; experiment: biochemical; details: mean ± standard deviation, repeated three times; 10 min at 37 °C, absorbance at 405 nm
Method: For the reaction system, see Table 3. The specific steps are described below.
140 µL of phosphate buffer (PBS, 0.1 mol/L, pH = 7.4), 20 µL of AChE (0.303 U/mL) and 20 µL of sample solution were added in sequence to a 96-well plate, mixed evenly, and added with 10 µL of DTNB (3.3 mM) and 10 µL of acetylthiocholine iodide (ATCI) (15 mM). They were mixed evenly and incubated for 10 min at 37 °C, then measured absorbance at 405 nm.
The sample was replaced with PBS in a blank enzyme group. The sample was replaced with PBS in a blank enzyme-free group. The enzyme solution was replaced with PBS in the sample control group.
The inhibitory rate of the sample against AChE activity is calculated by the following formula: Inhibitory rate = [1−(Asample−Asample control)/(Ablank enzyme−Ablank enzyme−free)] × 100% [formula]
The median inhibitory concentration of AChE was calculated by testing inhibitory rates at different sample concentrations. […] Table 3 Anti-AChE activity screening method

T1 sequence (P22303 32-614): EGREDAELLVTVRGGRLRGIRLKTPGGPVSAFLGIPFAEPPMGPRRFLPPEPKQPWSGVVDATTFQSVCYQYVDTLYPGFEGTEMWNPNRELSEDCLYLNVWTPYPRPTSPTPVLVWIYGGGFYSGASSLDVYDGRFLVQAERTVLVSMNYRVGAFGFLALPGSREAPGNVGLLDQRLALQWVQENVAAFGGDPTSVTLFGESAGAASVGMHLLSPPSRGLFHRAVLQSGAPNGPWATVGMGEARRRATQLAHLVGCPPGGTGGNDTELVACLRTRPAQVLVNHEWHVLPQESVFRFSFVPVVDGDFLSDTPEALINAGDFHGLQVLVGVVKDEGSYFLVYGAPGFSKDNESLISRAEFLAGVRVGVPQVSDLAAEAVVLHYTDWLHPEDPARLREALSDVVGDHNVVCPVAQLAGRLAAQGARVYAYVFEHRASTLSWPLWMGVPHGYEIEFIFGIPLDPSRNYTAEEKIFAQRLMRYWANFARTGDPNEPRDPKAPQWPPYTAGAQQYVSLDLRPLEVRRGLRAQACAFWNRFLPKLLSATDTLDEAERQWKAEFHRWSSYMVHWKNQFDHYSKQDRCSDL

| Structure (SMILES) | retention on AChE-ICER / Control-ICER (specific binding) (AChE [1]) | effect of combinations when used as the first alkaloid (AChE [2]) | IC20 (AChE [2]) [µg/mL] | IC50 (AChE [2]) [µM] | IC80 (AChE [2]) [µg/mL] | IC90 (AChE [2]) [µg/mL] | IC50 (AChE [3]) [µM] |
| --- | --- | --- | --- | --- | --- | --- | --- |
| CCCC(=O)Nc1ccc(OCC(O)CNC(C)C)c(C(C)=O)c1 (centres unmarked) [acebutolol] | remains neither on AChE-ICER nor on enzyme-inactive Control-ICER |  |  |  |  |  |  |
| COc1cc2c(cc1OC)-c1cc3ccc(OC)c(OC)c3c[n+]1CC2 [Pal, palmatine] |  | only the irrelevant effect or the antagonistic effect | 0.1 | 4.31 | 22.8 | 48.3 | 4.31 |
| COc1ccc2cc3[n+](cc2c1OC)CCc1cc2c(cc1-3)OCO2 [Ber, berberine] |  | only the irrelevant effect or the antagonistic effect | 0.26 |  | 24.1 | 50.2 |  |
| COc1cc2c(cc1O)-c1cc3ccc(OC)c(OC)c3c[n+]1CC2 [Col, columbamine] |  | significant synergistic effect | 0.18 | 2.75 | 4.8 | 12.5 | 2.75 |
| COc1cc2c(cc1O)CC[n+]1cc3c(OC)c(OC)ccc3cc1-2 [Jat, jatrorrhizine] |  | significant synergistic effect | 0.39 | 10.3 | 31.4 | 63.2 | 10.3 |
